Data taken from patent US9562053B2, “Benzo-fused heterocyclic derivatives useful as agonists of GPR120” (Janssen Pharmaceutica NV, priority 2013, dated 2017).

Assays:
Assay type in all cases: cell-based
[1] = molecular target: T1, short form of the GPR120 receptor (Homo sapiens, UniProt Q5NUL3); experiment: Human GPR120 DiscoveRx PathHunter Beta-Arrestin Assay, Procedure β-arrestin B (5000 cells/well)
T1 construct: host or cells: PathHunter CHO-K1 GPR120S β-Arrestin Cell Line
T1 sequence (Q5NUL3 1-361): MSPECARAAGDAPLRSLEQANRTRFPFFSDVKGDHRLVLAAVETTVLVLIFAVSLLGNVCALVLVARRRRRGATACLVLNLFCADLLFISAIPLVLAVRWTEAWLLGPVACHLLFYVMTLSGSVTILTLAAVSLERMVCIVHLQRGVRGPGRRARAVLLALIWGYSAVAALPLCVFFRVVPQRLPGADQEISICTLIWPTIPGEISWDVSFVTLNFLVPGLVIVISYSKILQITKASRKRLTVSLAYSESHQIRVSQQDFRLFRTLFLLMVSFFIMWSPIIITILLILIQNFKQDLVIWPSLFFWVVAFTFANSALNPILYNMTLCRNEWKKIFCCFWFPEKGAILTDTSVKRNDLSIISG
Excerpt: (§1) The binding of an agonist (medium/long chain fatty acids or small molecule agonists) to the G-protein-coupled receptor GPR120 activates phospholipase C, leading to release of intracellular Ca^+2 through the generation of inositol 1,4,5-trisphosphate (InsP3 or IP3). GPR120 activation can also trigger intracellular signaling via recruitment of β-Arrestin. In the present method, agonist-induced activation of the human GPR120 receptor is monitored through the use of PathHunter CHO-K1 GPR120 β-Arrestin Cell Line engineered by DiscoveRx, as detailed below. The cell lines are designed to co-express both the ProLink/Enzyme Donor (PK)-tagged GPCR and the Enzyme Activator (EA)-tagged β-Arrestin fusion proteins. Upon GPR120 receptor stimulation/activation, the EA-tagged β-Arrestin portion is translocated to the tagged receptor, where the two enzyme fragments are brought within close proximity. Under these conditions, these fragments can interact and form an active Beta-gal enzyme complex through Enzyme Fragment Complementation (EFC). This active Beta-gal complex can enzymatically hydrolyse the substrate to produce a detectable light signal; therefore, activation as a function of agonist concentration can be expressed as an EC50 value to determine relative compound activities. This in vitro assay therefore serves to assess compound agonist activity of the GPR120.
In Procedure β-arrestin B the cells used were PathHunter CHO-K1 GPR120S β-Arrestin Cell Line, expressing the short form of the GPR120 receptor (Accession #NM_181745), with 5000 cells/well.
(§2) The selected CHO-K1 GPR120 β-Arrestin cells were cultured in Ham's F12 media supplemented with 10% fetal bovine serum (FBS), 1% Glutamine, 1×p/s, 800 μg/ml G418 and 300 μg/ml Hygromycin B (for selection). Cell stocks were maintained and grown in a sub-confluent state using standard cell culture procedures. The day before the experiment, the cells were harvested with non-enzymatic cell dissociation buffer and re-suspended in complete growth media at the desired concentration. A Corning 384-plate was then seeded with the proper number of cells in a volume of 25 μL, per well. The seeded plates were incubated overnight at 37° C.
(§3) On the day of the experiment, the Assay Buffer containing (a) HBSS with Ca^++ and Mg^++, (b) 20 mM HEPES, and (c) 0.1% BSA stabilizer (pH 7.4) was prepared. The growth medium was gently removed from the cell plates and 20 μL of Assay Buffer added to each well. The plate was then incubated at 37° C. for 60 mins. Test compounds were serially diluted in Assay Buffer to desired concentrations (more particularly, to one or more of the following μM concentrations: 25 μM, 12.5 μM, 6.25 μM, 3.125 μM, 1.562 μM, 0.781 μM, 0.391 μM, 0.195 μM, 0.098 μM, 0.049 μM, 0.024 μM, 0.012 μM). Five μl of compound dilution was then added to each well and the plate incubated at 37° C. for 90 mins. The detection reagents were prepared according to the manufacture's instruction. Twelve μL of the detection reagents were added to each well and the plate incubated at room temperature for 60 mins.
(§4) The plates were read on an EnVision instrument, using Protocol name: Luminescence, Plate type: 384 Costar, Measurement height: 3 mm, Measurement time: 1 s, Aperture: 384 Plate aperture. The % activity relative to the positive control was calculated using the following equation:
(§5) The % Activity values were plotted versus the concentration of test compound and fitted to a sigmoidal dose-response curve with a Hill slope=1 (fixed value) using nonlinear regression with GraphPad Prism 5.0 to calculate the EC50 values. The Fitting Equation was: Y=Bottom+(Top−Bottom)/(1+10^((LogEC50−X)*HillSlope)), where X is the log of the concentration and Y is the response.

Human GPR120 short form = molecular target: T2, Human GPR120 short form (Homo sapiens, UniProt Q5NUL3); experiment: Human GPR120 in Calcium Flux Assay, Procedure Calcium A (2500 cells/well)
T2 construct: expressed in transfected cells
T2 sequence (Q5NUL3 1-361): T1 sequence (Q5NUL3 1-361)
Excerpt: This in vitro assay serves to assess test compound agonist activity against the short splice variant (SVS with Accession number NM_001195755.1 confirmed by sequencing data) of the GPR120 receptor. The Human Short splice variant #2 (NM_001195755.1) is missing an in-frame coding exon compared to variant 1 (the Human Long splice variant NM_181745.3), resulting in a shorter isoform (GPR120-S) lacking a 16 aa protein segment compared to isoform GPR120-L. The assay platform utilizes HEK-293 cells stably transfected to express the Human GPR120 short form. These cells are first loaded with the Ca^+2 sensitive dye, Fluo-4 NW. Upon stimulation, intracellular released Ca^+2 can bind to the dye and alter its fluorescence intensity. This increase in fluorescence signal, and thus the flux in intracellular [Ca^+2], is detected and quantitated by fluorescence imaging using a FLIPR reader. The effect of the agonist is measured as a function of concentration and used to calculate an EC50 based upon a response curve.
In this procedure 2500 cells/well were employed.
A Human GPR120 clone (Genbank accession number NM_001195755.1) was placed into the pcDNA3.1 mammalian expression vector carrying the neomycin resistance gene. A stable mammalian cell was generated by placing the above clone into a HEK293 background. Clonal cells responding to long chain fatty acids had expression levels of GPR120 confirmed by RT-qPCR. Human HEK-GPR120 cells were cultured in Dulbecco's Modified Eagle's Medium (DMEM)/F12 medium supplemented with 10% fetal bovine serum (FBS), 1% L-Glutamine and 1% penicillin/streptomycin and 0.5 mg/ml G-418. Cells were split 2 times a week to keep the cells in the log-phase growth.
In preparation for the assay, HEK cells stably transfected with Human GPR120 (2.5K cells per well in 25 uL growth medium) were seeded into 384-well plates and then incubated overnight (37° C., 5% CO2). The next day, the media was changed to 20 μl assay buffer and the cell starved for 1 h at 37° C. The dye loading solution (2× dye) was prepared using 10 ml assay buffer, 100 μl of 250 mM probenecid, 1 bottle of Component A, and 20 μl of dye in DMSO. Twenty μl of the 2× dye loading buffer was then added to each well. The plates were incubated at 37° C. for 30 min, then at room temperature for an additional 15 minutes, before performing the assay on FLIPR.
Test compounds were prepared in assay buffer (2 μl of test compound+198 μl assay buffer, final DMSO in assay plate is 0.2%) at the desired concentration, more particularly at 100 μM, 50 μM, 25 μM, 12.5 μM, 6.25 μM, 3.125 μM, 1.562 μM, 0.781 μM, 0.391 μM, 0.195 μM, 0.098 μM, 0.049 μM, 0.024 μM and 0.012 μM.
The assay was performed on a FLIPR plate reader using the following parameters. Baseline was read for 10 seconds at 1 sec intervals. The program was set to transfer 10 μL of ligand from compound plate to cell plate after baseline reading. Aspiration was executed at: 10 μl/sec speed, 4.6 μl height; Dispensing was executed at: 30 μl/sec speed, 45 μl height. After compound addition, each well was read for 300 sec, with measurements collected at 1 sec intervals.
The kinetic data from the FLIPR was based upon a 5 minute window for data collection. The fluorescence of each sample well was used for individual calculations of a normalized RFU value, which was defined as maximum response minus the minimum response. The normalized fluorescence reading (RFU) was calculated as follows: RFU=Fmax−Fmin
The data were fitted to a sigmoidal dose-response curve with a variable Hill slope (<2) using nonlinear regression with GraphPad Prism 5.0 to calculate the EC50 values. The Fitting Equation was: Y=Bottom+(Top−Bottom)/(1+10^((LogEC50−X)*HillSlope)), where X is the log of the concentration and Y is the response.

[2] = molecular target: T3, long form of human GPR120 (Homo sapiens, UniProt Q5NUL3); experiment: Human GPR120 DiscoveRx PathHunter Beta-Arrestin Assay, Procedure β-arrestin A (3000 cells per well); details: read-out: GPR120 B-arrestin A EC50
T3 construct: host or cells: PathHunter CHO-K1 GPR120 β-Arrestin Cell Line
T3 sequence (Q5NUL3 1-377 isoform Q5NUL3-1): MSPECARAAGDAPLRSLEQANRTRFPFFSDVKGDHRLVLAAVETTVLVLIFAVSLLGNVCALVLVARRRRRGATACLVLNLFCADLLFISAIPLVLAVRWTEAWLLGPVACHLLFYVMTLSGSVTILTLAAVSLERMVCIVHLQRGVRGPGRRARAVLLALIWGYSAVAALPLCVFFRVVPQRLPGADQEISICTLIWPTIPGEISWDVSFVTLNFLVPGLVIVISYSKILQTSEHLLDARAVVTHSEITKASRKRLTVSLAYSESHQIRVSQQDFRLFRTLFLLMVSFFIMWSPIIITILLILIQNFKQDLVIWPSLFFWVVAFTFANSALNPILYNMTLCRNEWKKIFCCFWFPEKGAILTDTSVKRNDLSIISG
Excerpt: as §1
In Procedure β-arrestin A, the cell used were PathHunter CHO-K1 GPR120 β-Arrestin Cell Line, expressing the long form of human GPR120 (Genbank accession number NM_181745), with 3000 cells per well.
as §2, §3, §4, §5

SMILES	EC50 [1]	EC50 (Human GPR120 short form)	EC50 [2]
Cc1c(CCC(=O)O)ccc(OCc2cc(Cl)cc3sc(C(F)(F)F)nc23)c1C [Compound 119, 3-(4-{[6-Chloro-2-(trifluoromethyl)-1,3-benzothiazol-4-yl]methoxy}-2,3-dimethylphenyl)propanoic acid]	1440 nM		
Cc1nc2c(COc3ccc(CCC(=O)O)c(C)c3C)cc(OC(F)(F)F)cc2s1 [Compound 118, 3-(2,3-Dimethyl-4-{[2-methyl-6-(trifluoromethoxy)-1,3-benzothiazol-4-yl]methoxy}phenyl)propanoic acid]	237 nM	65 nM	
Cc1oc2cccc(COc3ccc(CCC(=O)O)c(F)c3F)c2c1C [Compound 1, 3-{4-[(2,3-Dimethyl-1-benzofuran-4-yl)methoxy]-2,3-difluorophenyl}propanoic acid]			> 20000 nM
Cc1nc2cc(Cl)cc(COc3ccc(CCC(=O)O)c(C)c3C)c2s1 [Compound 121, 3-{4-[(5-Chloro-2-methyl-1,3-benzothiazol-7-yl)methoxy]-2,3-dimethylphenyl}propanoic acid]	1190 nM	382 nM	
CCCc1cc2cc(C(C)(F)F)cc(COc3ccc(CCC(=O)O)c(C)c3C)c2o1 [Compound 79, 3-(4-{[5-(1,1-Difluoroethyl)-2-propyl-1-benzofuran-7-yl]methoxy}-2,3-dimethylphenyl)propanoic acid]			2220 nM
Cc1c(CCC(=O)O)ccc(OCc2cc(F)cc3sc(C(F)(F)F)nc23)c1C [Compound 117, 3-(4-{[6-Fluoro-2-(trifluoromethyl)-1,3-benzothiazol-4-yl]methoxy}-2,3-dimethylphenyl)propanoic acid]	681 nM	422 nM	
Cc1c(CCC(=O)O)ccc(OCc2cc(F)cc3sc(CC(C)C)nc23)c1C [Compound 115, 3-(4-{[6-Fluoro-2-(2-methylpropyl)-1,3-benzothiazol-4-yl]methoxy}-2,3-dimethylphenyl)propanoic acid]	772 nM	468 nM	
Cc1cc2cc(OC(F)(F)F)cc(COc3ccc(CCC(=O)O)c(C(F)(F)F)c3)c2o1 [Compound 112, 3-[4-{[2-Methyl-5-(trifluoromethoxy)-1-benzofuran-7-yl]methoxy}-2-(trifluoromethyl)phenyl]propanoic acid]	110 nM	121 nM	
Cc1cc2c(COc3ccc(CCC(=O)O)c(F)c3F)cccc2o1 [Compound 6, 3-{2,3-Difluoro-4-[(2-methyl-1-benzofuran-4-yl)methoxy]phenyl}propanoic acid]			> 20000 nM
